Measured values reported in patent publication US20240132484A1, “BROAD SPECTRUM ANTIVIRAL COMPOUNDS TARGETING THE SKI COMPLEX” (priority 2020, published 2024).
“And” between values parts separate entries of the source, which are not always exact repeats. Equal values may be shown once. Read-outs that look alike come from different tables or passages of the source.

Tests used:
SARS2 = type: cell-based, SARS-CoV-2; settings: for Percentage Inhibition Average 1 μM / Screening data (Relative infection to DMSO controls) Average 1 μM: SARS2, 1 μM; for Screening data (Relative infection to DMSO controls) Average 1 μM / Screening data (Relative infection to DMSO controls) Average 5 μM / Screening data (Relative infection to DMSO controls) Average 10 μM / Screening data (Relative infection to DMSO controls) Average 25 μM / Screening data (Relative infection to DMSO controls) Average 50 μM / Average (relative infection to DMSO over the 5 tested concentrations): 100=DMSO control; for Percentage Inhibition Average 5 μM / Screening data (Relative infection to DMSO controls) Average 5 μM: SARS2, 5 μM; for Percentage Inhibition Average 10 μM / Screening data (Relative infection to DMSO controls) Average 10 μM: SARS2, 10 μM; for Percentage Inhibition Average 25 μM / Screening data (Relative infection to DMSO controls) Average 25 μM: SARS2, 25 μM; for Percentage Inhibition Average 50 μM / Screening data (Relative infection to DMSO controls) Average 50 μM: SARS2, 50 μM; for Average (relative infection to DMSO over the 5 tested concentrations): SARS2, average over 1 to 50 uM; for Infection Data, Percentage Infection Relative to Appropriate DMSO Control with Avg Background Subtraction: duplicate wells, listed as SICLS62; for Infection Data, Average, Mean (Percentage Infection Relative to Appropriate DMSO Control): average of Exp 1 and Exp 2, n=4
cells (nuclei count) = settings: for Relative cell count to DMSO controls, Average 1 μM / Relative cell count to DMSO controls, Average 5 μM / Relative cell count to DMSO controls, Average 10 μM / Relative cell count to DMSO controls, Average 25 μM / Relative cell count to DMSO controls, Average 50 μM: toxicity data, 100=DMSO control; for Relative cell count to DMSO controls, Average (for correlation analysis): average value over the 5 tested concentrations (1 to 50 uM); for Toxicity Data, Average, Mean (percentage relative to appropriate DMSO control): average of Exp 1 and Exp 2, n=4

SMILES | Percentage Inhibition Average 1 μM (SARS2) [%] | Screening data (Relative infection to DMSO controls) Average 1 μM (SARS2) | Percentage Inhibition Average 5 μM (SARS2) [%] | Screening data (Relative infection to DMSO controls) Average 5 μM (SARS2) | Percentage Inhibition Average 10 μM (SARS2) [%] | Screening data (Relative infection to DMSO controls) Average 10 μM (SARS2) | Percentage Inhibition Average 25 μM (SARS2) [%] | Screening data (Relative infection to DMSO controls) Average 25 μM (SARS2) | Percentage Inhibition Average 50 μM (SARS2) [%] | Screening data (Relative infection to DMSO controls) Average 50 μM (SARS2) | Average (relative infection to DMSO over the 5 tested concentrations) (SARS2) | Relative cell count to DMSO controls, Average 1 μM (cells (nuclei count)) | Relative cell count to DMSO controls, Average 5 μM (cells (nuclei count)) | Relative cell count to DMSO controls, Average 10 μM (cells (nuclei count)) | Relative cell count to DMSO controls, Average 25 μM (cells (nuclei count)) | Relative cell count to DMSO controls, Average 50 μM (cells (nuclei count)) | Relative cell count to DMSO controls, Average (for correlation analysis) (cells (nuclei count)) | further results
CCCCCCCCNC(=O)C1=C(C)NC(=O)NC1c1ccc(OC)c(OC)c1 (stereo not shown) [SILCS65] | 12.85 | 87.15 | 42.13 | 57.87 | −8.68 | 108.68 | −33.09 | 133.09 | −46.13 | 146.13 | 106.58 | 104.64 | 115.73 | 98.27 | 89.35 | 75.91 | 96.78 | –
CN1CCN(CC(O)COc2cccc(N3CCCCC3)c2CNCCc2ccccc2F)CC1 (stereo not shown) [SILCS10] | 47.40 | 52.60 | 56.27 | 43.73 | 58.42 | 41.58 | 66.00 | 34.00 | 93.61 | 6.39 | 35.66 | 131.94 | 141.21 | 131 | 50.46 | 84.08 | 107.74 | SARS2 antiviral activity (SARS2): strong activity; Toxicity Data, Average, Mean (relative to DMSO control) (cells (nuclei count); Average of Exp 1-3, 1 uM): 131.94%; Toxicity Data, Average, Mean (relative to DMSO control) (cells (nuclei count); Average of Exp 1-3, 5 uM): 141.21%; Toxicity Data, Average, Mean (relative to DMSO control) (cells (nuclei count); Average of Exp 1-3, 10 uM): 131.00%; Toxicity Data, Average, Mean (relative to DMSO control) (cells (nuclei count); Average of Exp 1-3, 25 uM): 50.46%; Toxicity Data, Average, Mean (relative to DMSO control) (cells (nuclei count); Average of Exp 1-3, 50 uM): 84.08%
CC1=C(C(=O)NCC2CCC2)C(c2cccs2)NC(=O)N1 (stereo not shown) [SILCS62] | 31.86 | 68.14 | 69.63 | 30.37 | 53.65 | 46.35 | 48.59 | 51.41 | 76.12 | 23.88 | 44.03 | 112.47 | 123.92 | 116.29 | 106.51 | 98.08 | 111.45 | Infection Data, Percentage Infection Relative to Appropriate DMSO Control with Avg Background Subtraction (SARS2; 1 uM, Exp 1 (SMW506)): 84.10% and 102.05%; Infection Data, Percentage Infection Relative to Appropriate DMSO Control with Avg Background Subtraction (SARS2; 1 uM, Exp 2 (SMW492), SILCS 61-66 and 67-72 plates): 50.01% and 36.38%; Infection Data, Average, Mean (Percentage Infection Relative to Appropriate DMSO Control) (SARS2; 1 uM): 68.14%; Infection Data, Percentage Infection Relative to Appropriate DMSO Control with Avg Background Subtraction (SARS2; 5 uM, Exp 1 (SMW506)): 45.05% and 53.24%; Infection Data, Percentage Infection Relative to Appropriate DMSO Control with Avg Background Subtraction (SARS2; 5 uM, Exp 2 (SMW492), SILCS 61-66 and 67-72 plates): 9.05% and 14.15%; Infection Data, Average, Mean (Percentage Infection Relative to Appropriate DMSO Control) (SARS2; 5 uM): 30.37%; Infection Data, Percentage Infection Relative to Appropriate DMSO Control with Avg Background Subtraction (SARS2; 10 uM, Exp 1 (SMW506)): 84.98% and 89.35%; Infection Data, Percentage Infection Relative to Appropriate DMSO Control with Avg Background Subtraction (SARS2; 10 uM, Exp 2 (SMW492), SILCS 61-66 and 67-72 plates): 5.57% and 5.50%; Infection Data, Average, Mean (Percentage Infection Relative to Appropriate DMSO Control) (SARS2; 10 uM): 46.35%; Infection Data, Percentage Infection Relative to Appropriate DMSO Control with Avg Background Subtraction (SARS2; 25 uM, Exp 1 (SMW506)): 83.54% and 119.74%; Infection Data, Percentage Infection Relative to Appropriate DMSO Control with Avg Background Subtraction (SARS2; 25 uM, Exp 2 (SMW492), SILCS 61-66 and 67-72 plates): 1.62% and 0.75%; Infection Data, Average, Mean (Percentage Infection Relative to Appropriate DMSO Control) (SARS2; 25 uM): 51.41%; Infection Data, Percentage Infection Relative to Appropriate DMSO Control with Avg Background Subtraction (SARS2; 50 uM, Exp 2 (SMW492), SILCS 61-66 and 67-72 plates): −0.82% and 2.34%; Infection Data, Average, Mean (Percentage Infection Relative to Appropriate DMSO Control) (SARS2; 50 uM): 23.88%; Toxicity Data, Average, Mean (percentage relative to appropriate DMSO control) (cells (nuclei count); 1 uM): 112.47%; Toxicity Data, Average, Mean (percentage relative to appropriate DMSO control) (cells (nuclei count); 5 uM): 123.92%; Toxicity Data, Average, Mean (percentage relative to appropriate DMSO control) (cells (nuclei count); 10 uM): 116.29%; Toxicity Data, Average, Mean (percentage relative to appropriate DMSO control) (cells (nuclei count); 25 uM): 106.51%; Toxicity Data, Average, Mean (percentage relative to appropriate DMSO control) (cells (nuclei count); 50 uM): 98.08%
